Measurements: publication PMC6691772, “Novel phthalimide based analogues: design, synthesis, biological evaluation, and molecular docking studies” (Journal of Enzyme Inhibition and Medicinal Chemistry, 2019)
Converted amounts (≈) assume the structure as drawn.

How the values were obtained:
S. pneumonia RCMB 010010 = experiment: Agar well diffusion, inhibition zone; format: cell-based, Streptococcus pneumoniae; design: key to Mean diameter of inhibition zone (Mean ± SEM): –: -: No activity under the screening conditions; conditions: mean of three values; for zone of inhibition at 1000 µg/mL: Streptococcus pneumoniae, RCMB010010, 1 mg/mL, read-out: Mean diameter of inhibition zone (Mean ± SEM)
B. subtilis RCMB 010067 = experiment: Agar well diffusion, inhibition zone; format: cell-based, Bacillus subtilis; design: key to Mean diameter of inhibition zone (Mean ± SEM): –: -: No activity under the screening conditions; conditions: mean of three values; for zone of inhibition at 1000 µg/mL: Bacillus subtilis, RCMB010067, 1 mg/mL, read-out: Mean diameter of inhibition zone (Mean ± SEM)
[1] = system: P. aeruginosa RCMB 010043; experiment: Agar well diffusion, inhibition zone; format: cell-based, Pseudomonas aeruginosa; design: key to Mean diameter of inhibition zone (Mean ± SEM): –: -: No activity under the screening conditions; conditions: mean of three values; for zone of inhibition at 1000 µg/mL: Pseudomonas aeruginosa, RCMB010043, 1 mg/mL, read-out: Mean diameter of inhibition zone (Mean ± SEM)
E. coli RCMB 010052 [2] = experiment: Agar well diffusion, inhibition zone; format: cell-based, Escherichia coli; design: key to Mean diameter of inhibition zone (Mean ± SEM): –: -: No activity under the screening conditions; conditions: mean of three values; for zone of inhibition at 1000 µg/mL: Escherichia coli, RCMB010052, 1 mg/mL, read-out: Mean diameter of inhibition zone (Mean ± SEM)
A. fumigatus RCMB 002568 [3] = experiment: Agar well diffusion, inhibition zone; format: cell-based, Aspergillus fumigatus; design: key to Mean diameter of inhibition zone (Mean ± SEM): –: -: No activity under the screening conditions; conditions: mean of three values; for Mean diameter of inhibition zone (Mean ± SEM): 1 mg/mL
C. albicans RCMB 005036 = experiment: Agar well diffusion, inhibition zone; format: cell-based, Candida albicans; design: key: –: -: No activity under the screening conditions; conditions: 1 mg/mL, mean of three values
[4] = system: P. aeruginosa RCMB 010043; experiment: Minimum inhibitory concentration, modified agar well diffusion; format: cell-based; conditions: Pseudomonas aeruginosa, RCMB010043, mean of three values, read-out: MIC (Mean ± SEM)
E. coli RCMB 010052 [5] = experiment: as above; format: cell-based; conditions: Escherichia coli, RCMB010052, mean of three values, read-out: MIC (Mean ± SEM)
[6] = system: human liver cancer cell line (HepG-2); experiment: MTT anticancer assay; format: cell-based; conditions: HepG2, HePG-2 cancer liver cell line, mean of three values, read-out: IC50 (Mean ± SEM)
[7] = system: (THLE-2) normal liver cell line; experiment: Cytotoxic screening on normal liver cells; format: cell-based; conditions: Homo sapiens, mean of three values, read-out: IC50 (Mean ± SEM)
A. fumigatus RCMB 002568 [8] = experiment: Minimum inhibitory concentration, modified agar well diffusion; format: cell-based; conditions: Aspergillus fumigatus, RCMB002568, mean of three values, read-out: MIC (Mean ± SEM)

SMILES	zone of inhibition at 1000 µg/mL (S. pneumonia RCMB 010010) [mm]	zone of inhibition at 1000 µg/mL (B. subtilis RCMB 010067) [mm]	Mean diameter of inhibition zone (Mean ± SEM) ([1]; 1 mg/mL)	Mean diameter of inhibition zone (Mean ± SEM) (E. coli RCMB 010052 [2]; 1 mg/mL)	Mean diameter of inhibition zone (Mean ± SEM) (A. fumigatus RCMB 002568 [3])	Mean diameter of inhibition zone (Mean ± SEM) (C. albicans RCMB 005036)	MIC [4] [µg/mL]	MIC (E. coli RCMB 010052 [5]) [µg/mL]	IC50 [6] [µg/mL]	IC50 [7] [µg/mL]	zone of inhibition at 1000 µg/mL [1] [mm]	zone of inhibition at 1000 µg/mL (E. coli RCMB 010052 [2]) [mm]	melting point [°C]	Mean diameter of inhibition zone (Mean ± SEM) (S. pneumonia RCMB 010010; 1 mg/mL)	Mean diameter of inhibition zone (Mean ± SEM) (B. subtilis RCMB 010067; 1 mg/mL)	MIC (A. fumigatus RCMB 002568 [8]) [µg/mL]	zone of inhibition at 1000 µg/mL (A. fumigatus RCMB 002568 [3]; Aspergillus fumigatus, RCMB002568, 1 mg/mL, read-out: Mean diameter of inhibition zone (Mean ± SEM)) [mm]
CC1(C)S[C@@H]2[C@H](NC(=O)[C@H](N)c3ccccc3)C(=O)N2[C@H]1C(=O)O [Ampicillin, reference compound]	23.8 ± 0.71	26.4 ± 0.5	–	–	–	–	3.9 ± 0.15 (≈ 11.2 µM)	0.98 ± 1.05 (≈ 2.8 µM)									
CC[C@]1(O)C[C@@H]2CN(CCc3c([nH]c4ccccc34)[C@@](C(=O)OC)(c3cc4c(cc3OC)N(C)[C@H]3[C@@](O)(C(=O)OC)[C@H](OC(C)=O)[C@]5(CC)C=CCN6CC[C@]43[C@@H]65)C2)C1 [Vinblastine, reference compound]									4.63 ± 1.07 (≈ 5.71 µM)	2146.1 ± 0.1 (≈ 2650 µM)							
CCOC(=O)C(C#N)=NNN1C(=O)c2ccccc2C1=O [Compound 3, Ethyl 2-cyano-2-(2-(1,3-dioxoisoindolin-2-yl)hydrazono)acetate]	18.3 ± 0.7	17.3 ± 0.6			–	–			12.6 ± 0.13 (≈ 44 µM)	716.37 ± 0.1 (≈ 2500 µM)	15.3 ± 0.7	17.1 ± 0.5	128 to 129				
CNC(C)C1CCC(N)C(OC2C(N)CC(N)C(OC3OCC(C)(O)C(NC)C3O)C2O)O1 (centres unmarked) [Gentamycin, reference compound]					–	–					19.7 ± 0.6	24.9 ± 1.5		–	–	1.95 ± 0.03 (≈ 4.08 µM)	
NC1=Nc2c(N=NN3C(=O)c4ccccc4C3=O)c(O)nn2C1 [Compound 6, 2-((2-Amino-6-hydroxy-3H-imidazo[1,2-b]pyrazol-7-yl)diazenyl)isoindoline-1,3-dione]	20.8 ± 1.5	17.8 ± 1.2			–	–			14.4 ± 0.37 (≈ 46.3 µM)	652.46 ± 0.03 (≈ 2100 µM)	11.9 ± 1.3	16.3 ± 0.5	180 to 182				
O=C1c2ccccc2C(=O)N1N=Nc1c(O)nn2cc(-c3ccccc3)[nH]c12 [Compound 7, 2-((6-Hydroxy-2-phenyl-1H-imidazo[1,2-b]pyrazol-7-yl)diazenyl)isoindoline-1,3-dione]	12.7 ± 0.6	21.5 ± 1.5			–	–			23.6 ± 1.32 (≈ 63.4 µM)	662.58 ± 0.17 (≈ 1780 µM)	16.9 ± 1.2	11.9 ± 1.3	196 to 198				
CN(C)C=NC1=NNC(=O)C1=NNN1C(=O)c2ccccc2C1=O [Compound 10, N'-{4-[(1,3-dioxo-1,3-dihydro-2H-isoindol-2-yl)hydrazono]-5-oxo-4,5-dihydro-1H-pyrazol-3-yl}-N,N-dimethylimidoformamide]	14.2 ± 0.4	11.3 ± 0.7				–			16.7 ± 0.26 (≈ 51.1 µM)	688.29 ± 0.11 (≈ 2100 µM)	12.3 ± 0.4	22.6 ± 1.5	136 to 138				12.1 ± 1.5
